Test system: SARS-CoV-2 (B.1.351, beta variant)
Parameters: species or system C57BL/6 mice
Settings: mouse, in vivo

Nc1nccc2c1ncn2[C@@H]1C=C(CO)[C@@H](O)[C@H]1O [DZNep, 3-deazaneplanocin A]
abundance of viral transcripts N, M and E in lung RNA by RT-qPCR: significant DZNep-dependent reduction in abundance of viral transcripts | lung infectious viral load (titration of lung homogenate supernatant on Vero E6 cells): significant reduction of the viral load in the lungs

Reference: patent publication US20240075017A1 (priority 2021, published 2024)
